Entries after “also recorded” stand apart in the source; their conditions may differ.
Key:
[1] = system: Pseudomonas aeruginosa ATCC 27853; experiment: Bacterial growth inhibition screen (A620); type: cell-based; details: ATCC27853, test conc 35 μg/ml, overnight 35° C., read-out: percent growth inhibition P. aeruginosa
Protocol: (§1) Compounds with high similarity scores, or at the intersection of the results of searches using a number of different approaches, and available from the NCI or Molecular Science libraries were obtained and screened for inhibition of growth of E. coli ATCC 35218, Klebsiella pneumoniae ATCC 13885, Pseudomonas aeruginosa ATCC 27853, Staphylococcus aureus ATCC 25923 and Enterococcus faecalis ATCC 33186 as follows. Compounds were supplied dissolved in DMSO at 1 mg/ml in a 96 well tray format. Six corresponding slave plates were prepared by adding 85 μl of sterile water, and 100 μl of two times Muller Hinton broth. Dissolved compounds (5 μl) from the master plate was added to the corresponding well in slave plates giving a final concentration of 50 μg/ml.
(§2) Plates were then transferred to a PC2 Laboratory for inoculation with selected bacterial strains. The strains are freshly grown and diluted in normal saline to 0.5 McFarland Standard (NCCLS Performance standard for Dilution Antimicrobial Susceptibility Testing M7-A4 January 1997). This solution was further diluted 1:10 in normal saline to form the bacterial inoculation culture. 10 μl was used to inoculate each well. Plates were covered and placed in a 35° C. incubator over night before A620 was determined. Tetracycline was used as a standard antimicrobial compound.

E. coli ATCC 35218 = experiment: Bacterial growth inhibition screen (A620); type: cell-based; details: Escherichia coli, ATCC35218, test conc 35 μg/ml, overnight 35° C., read-out: percent growth inhibition E. coli
Protocol: as §1, §2

[2] = system: Staphylococcus aureus ATCC 25923; experiment: Bacterial growth inhibition screen (A620); type: cell-based; details: overnight 35° C.; for inhibition at 50 µg/mL: ATCC25923, compound 50 μg/ml, read-out: inhibition of growth of S. aureus
Protocol: as §1, §2

[3] = system: Klebsiella pneumoniae ATCC 13885; experiment: Bacterial growth inhibition screen (A620); type: cell-based; details: ATCC13885, test conc 35 μg/ml, overnight 35° C., read-out: percent growth inhibition K. pneumoniae
Protocol: as §1, §2

[4] = system: Enterococcus faecalis ATCC 33186; experiment: Bacterial growth inhibition screen (A620); type: cell-based; details: overnight 35° C.; for inhibition at 50 µg/mL: ATCC33186, compound 50 μg/ml, read-out: inhibition of growth of E. faecalis
Protocol: as §1, §2

[5] = target: binding of E. coli δ to E. coli β (Escherichia coli, UniProt P0A988); experiment: biochemical; details: for IC50: IC50 δ-binding, Table 21
[6] = target: T1, binding of E. coli α to E. coli β (Escherichia coli, UniProt P0A988); experiment: biochemical; details: Table 21; Molsci (CMS) compounds, buffer BB37 (10 mM MnCl2); read-out: IC50 α-binding
T1 construct: made in house
Protocol: Recombinantly expressed wild type E. coli α subunit was purified and coated onto 96 well microtitre plates (Falcon flexible plates, Becton Dickinson) at 20 μg/ml in 100 mM Na2CO3, pH9.5 (50 μl/well, 4° C. overnight or 2 h, RT (RT). The plates were washed in WB3 (20 mM Tris (pH 7.5), 0.1 mM EDTA containing 0.05% v/v Tween 20). This buffer was used in all wash steps through out the assay. The plates were then blocked with “blotto” (5% skim milk powder in WB3, 100 μl/well, RT) until required. Immediately before use the plates were washed.
The purified synthetic peptides and β subunit were diluted in BB14 (20 mM Tris, pH 7.5, 10 mM MgCl2, 0.1 mM EDTA). Purified synthetic peptides with concentrations of 9.3-300 and 1000 μg/ml were allowed to complex with purified wild type β subunit (5 μg/ml) in a 96 well microtitre plate (Sarsted, Adelaide, Australia) pre-treated with “blotto” (30 min, RT). The reaction volume was 120 μl. The β subunit also was incubated in the absence of peptide or in the presence of the α subunit at 76.5 (μg/ml in BB14. All samples were incubated for 1 h (RT). Two 50 μl samples were transferred from each well to a corresponding well of the washed and “blocked” α subunit coated plates, and further incubated for 30 min (RT).
The plates were washed and treated with rabbit serum raised to the β subunit. The anti-serum was diluted 1:1000 in WB3 containing 10% “blotto”, dispensed at 50 μl/well and incubated for 12 min (RT). The plates were washed again and treated with sheep anti-rabbit Ig-HRP conjugate (Silenus, Melbourne, Australia) diluted 1:1000 in WB3 containing 10% “blotto” (50 μl/well). The plate was incubated for 12 min (RT). After a final washing step, 1 mM 2,2′-azino-bis (3-ethylbenzthiazoline-6-sulfonic acid) was added (110 μl/well). Colour development was assessed at 405 nm using a plate reader (Multiskan Ascent, Labsystems, Sweden).
For the CMS compounds in the of α:β assays, buffer BB37 replaced buffer BB14. Buffer BB37 contains 10 mM MnCl2 instead of the 10 mM MgCl2 used in BB14. The buffer conditions were changed to improve the reproducibility and sensitivity of the α:β binding assay.
Compounds from the CMS library were dissolved in DMSO at 1 mg/ml in a 96 well tray format. A corresponding slave plate was prepared by adding 115 μl of BB37. Dissolved compounds (5 μl) from the master plate was added to the corresponding well in slave plates giving a final concentration of 41.7 μg/ml.
Compounds were assayed for inhibition of the binding of E. coli α to E. coli β as described in Example 13.
Peptides were assayed for inhibition of the binding of E. coli α to E. coli β as described in Example 6 with the exception that buffer BB37 replaced buffer BB14 in the alpha:beta binding assay. As noted above, BB37 contains 10 mM MnCl2 instead of 10 mM MgCl2 used in BB14. Again, the change in buffer conditions was made to improve the reproducibility and sensitivity of the α:β binding assay.

binding of E. coli δ to E. coli β, sequence (P0A988 whole entry): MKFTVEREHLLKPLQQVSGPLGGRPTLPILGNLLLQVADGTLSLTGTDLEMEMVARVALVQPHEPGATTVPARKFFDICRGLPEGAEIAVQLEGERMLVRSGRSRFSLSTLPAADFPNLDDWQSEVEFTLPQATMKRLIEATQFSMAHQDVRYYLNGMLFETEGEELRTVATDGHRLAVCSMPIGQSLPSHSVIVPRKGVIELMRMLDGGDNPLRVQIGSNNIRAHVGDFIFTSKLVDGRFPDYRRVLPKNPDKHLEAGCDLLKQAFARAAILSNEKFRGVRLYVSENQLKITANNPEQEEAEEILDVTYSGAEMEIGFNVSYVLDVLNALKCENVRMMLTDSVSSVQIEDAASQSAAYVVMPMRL
T1 sequence (P0A988 whole entry): as above

Compound | inhibition at 35 µg/mL [1] | inhibition at 35 µg/mL (E. coli ATCC 35218) | inhibition at 35 µg/mL ([2]; ATCC25923, test conc 35 μg/ml, A620, read-out: percent growth inhibition S. aureus) | inhibition at 35 µg/mL [3] | inhibition at 35 µg/mL ([4]; ATCC33186, test conc 35 μg/ml, A620, read-out: percent growth inhibition E. faecalis) | inhibition at 50 µg/mL [2] | inhibition at 50 µg/mL [4] | IC50 [5] | inhibition of the binding of δ to β ([5]; plate binding assay as in Example 6) | IC50 [6]
CCC/C(=N\OC/C(Cl)=C/c1ccc(Cl)cc1)C1C(=O)CC(C)(C)CC1=O [Peptide 07877] | 3.9% | 17.6% | 84.7% | 8.3% | 59.6% | – | – | – | – | –
CCC/C(=N\OC/C(Cl)=C/c1ccc(Cl)cc1)C1C(=O)CC(C)(C)CC1=O [AOC-07877] | – | – | – | – | – | > 50% | > 50% | 90 µM | significantly inhibited; also recorded: significant inhibitory activity | 270 µM
CCC/C(=N\OC/C(C)=C(\O)c1ccc(C)cc1)C1C(=O)CC(CC)(CC)CC1=O [AOC-08944] | – | – | – | – | – | > 50% | > 50% | > 300 µM | – | > 300 µM
